Experiments:
Kupffer cells and RES [1] = assay: colloidal carbon clearance from the blood (phagocytic index K); assay type: in vivo, rat; conditions: for clearing potency order by change in K caused by 100 μg of treatment (ΔK/100 μg): crude comparison, rank order
Procedure: (§1) All of the experiments were performed in female Spraque-Dawley rats (ESS Laboratories, Lynnfield, Mass.) with an initial body weight of 150-180 g, and with unlimited access to Purina laboratory chow and tap water. Control and experimental groups consisted of 3-4 rats. Each experiment was repeated at least twice and the results were pooled. Linear or cyclic somatostatin (Serono) was injected under mild ether anesthesia at 10, 50, 100 or 250 μg in 0.5 ml of saline into the jugular vein once daily for 4 consecutive days in the dose-response study (FIG. 1). Control animals were injected with the same amount of saline. In the time-response study, 0, 1, 2, 3 or 4 daily doses of somatostatin, 50 μg, were injected i.v. (FIG. 2). In the comparative experiments, somatostatin, 250 μg, i.v., was given as in the first study, and standard doses of zymosan (Sigma 2,500 μg/100 g i.v.; twice, 48 and 24 hr before colloidal carbon) and the reticuloendothelial system (RES) blocker gadolinium chloride (Sigma; 500 μg/100 g i.v.; once, 24 hour prior to india ink) were administered to additional groups of rats (FIG. 3). In all of the experiments, 0.1 ml/100 g of the supernatant of centrifuged (3000 rpm/15 min) colloidal carbon (Wagner's india ink) was injected i.v. under mild ether anesthesia. Blood samples (50 μl ) were obtained with heparinized glass capillaries and by puncture of the retro-orbital venous plexus at 3, 6, 12 and 24 minutes after the administration of carbon. The blood samples were lysed in 2 ml of 0.1% Na2 CO3 solution. After 24 minutes, the rats were killed, and the livers were perfused through the portal vein with 20 ml saline to remove trapped blood. Samples of liver, spleen, lung and kidney were fixed in 10% formalin and subsequently processed for light microscopy. A piece of liver was digested in concentrated mineral acid, and, following organic extraction, the concentration of carbon, as in blood hemolysates, was measured spectrophotometrically at 660 nm using the method of Takahashi and Matsuoka (J. Toxicol. Sci., S., 1 (1980).
The phagocytic index or K value was calculated as described by others (Takahashi and Matsuoka, ibid; Biozzi et al, J. Exp. Pathol., 34, 441 (1953)) to indicate the carbon clearance for the blood. Since it was evident that the effect of treatment was maximal on carbon clearance during the first 6 or 12 minutes, K values were obtained only for this time interval. For statistical evaluation, Student's two-tailed t-test was used.

Kupffer cells = assay: light microscopic examination of liver sections for carbon particles; assay type: in vivo, rat; conditions: periportal areas, 24 minutes after carbon
Procedure: as §1, with “In all of the experiments, 0.1 ml/100 g of the supernatant of centrifuged (3000 rpm/15 min) colloidal carbon (Wagner's india ink) was injected i.v. under mild ether anesthesia. Blood samples (50 μl ) were obtained with heparinized glass capillaries and by puncture of the retro-orbital venous plexus at 3, 6, 12 and 24 minutes after the administration of carbon. The blood samples were lysed in 2 ml of 0.1% Na2 CO3 solution. After 24 minutes, the rats were killed, and the livers were perfused through the portal vein with 20 ml saline to remove trapped blood. Samples of liver, spleen, lung and kidney were fixed in 10% formalin and subsequently processed for light microscopy.” left out

[2] = pretreatment with exogenous somatostatin; cited from earlier work
[3] = in vivo; cited from earlier work
[4] = in vivo; cited from earlier work; remark: listed apart in the source
Kupffer cells and RES [5] = assay: hepatic uptake of colloidal carbon; assay type: in vivo, rat; conditions: zymosan 2,500 μg/100 g i.v. twice, 48 and 24 hr before carbon; GdCl3 500 μg/100 g i.v. once, 24 hour before (FIG. 3)
Procedure: as §1, with “In all of the experiments, 0.1 ml/100 g of the supernatant of centrifuged (3000 rpm/15 min) colloidal carbon (Wagner's india ink) was injected i.v. under mild ether anesthesia. Blood samples (50 μl ) were obtained with heparinized glass capillaries and by puncture of the retro-orbital venous plexus at 3, 6, 12 and 24 minutes after the administration of carbon. The blood samples were lysed in 2 ml of 0.1% Na2 CO3 solution. After 24 minutes, the rats were killed, and the livers were perfused through the portal vein with 20 ml saline to remove trapped blood. Samples of liver, spleen, lung and kidney were fixed in 10% formalin and subsequently processed for light microscopy.” left out

| Compound | colloidal carbon clearance from the blood, dose-response (Kupffer cells and RES [1]; 10 μg i.v. once daily for 4 days (FIG. 1)) | clearing potency order by change in K caused by 100 μg of treatment (ΔK/100 μg) (Kupffer cells and RES [1]) | colloidal carbon clearance from the blood, dose-response (Kupffer cells and RES [1]; doses of 50, 100 or 250 μg i.v. once daily for 4 days (FIG. 1)) | colloidal carbon clearance from the blood (Kupffer cells and RES [1]; female Sprague-Dawley rats, somatostatin i.v. once daily for 4 days vs saline, effect most dramatic during first 6-12 minutes (FIG. 1)) | phagocytic index or K value (Kupffer cells and RES [1]; time-response study, 50 μg i.v., three or four doses (one per day) (FIG. 2)) | carbon deposition in liver macrophages (light microscopy) (Kupffer cells) | cysteamine-induced duodenal ulcer [2] | gastric acid output [2] | effect on experimentally induced pancreatitis [3] | effect on adrenal and lung lesions [4] | carbon clearance from the blood, comparative experiment (Kupffer cells and RES [1]; zymosan 2,500 μg/100 g i.v. twice, 48 and 24 hr before carbon, GdCl3 500 μg/100 g i.v. once, 24 hour before (FIG. 3)) | uptake of the carbon to the liver, comparative experiment (Kupffer cells and RES [5]) |
| --- | --- | --- | --- | --- | --- | --- | --- | --- | --- | --- | --- | --- |
| somatostatin | less effective than the other doses | somatostatin >zymosan >GdCl3 | very similar results | markedly accelerated | significantly enhanced | caused numerous macrophages to take up carbons | prevents | minimal inhibition | beneficial effect | beneficial effect | – | – |
| [Cl][Gd]([Cl])[Cl] [GdCl3, gadolinium chloride] | – | somatostatin >zymosan >GdCl3 | – | – | – | – | – | – | – | – | inhibited | inhibited |

Reference: patent US4569926A, “Stimulation of phagocytosis with somatostatin” (Brigham and Women's Hospital, priority 1983, dated 1986)
